Assay results: US11202748B2, “Photoprotective compositions containing malassezia-derived compounds and/or chemical analogs thereof” (Versicolor Technologies, LLC, priority 2018, dated 2021)

Tests used:
[1] = tested on: arylhydrocarbon receptor (AhR); conditions: cited from earlier work
[2] = expected result
Description: For the CellTiter-Glo assay, test compounds are prepared in 10 mM DMSO solution. Compounds are serially diluted into 12 concentrations. 40 uL of cells from a 100,000 cell/mL suspension are dispensed into each well of a 384-well plate (Corning 3570). Plates are incubated overnight at 37° C., 5% CO2, and 95% humidity. Test compounds are added, with DMSO as vehicle control. Plates are incubated at 37° C., 5% CO2, and 95% humidity for 6, 24, or 48 hours, and 40 uL of CellTiter-Glo reagent is added to the wells to assess cell viability.

[3] = target: arylhydrocarbon receptor (AhR) (Homo sapiens, UniProt P35869); conditions: expected result
Description: Cultivated cells are rinsed with 5 mL PBS. […] Trypsin is inactivated by adding excess serum-containing media.
Cells are resuspended in seeding media at a proper density.
Compound solutions are transferred into the assay plate using Echo550. The plate is then placed back into the incubator for compound treatment.
Afterward, stock solutions of test compounds, test compositions, and omeprazole positive control are prepared. Compound and compositions solutions are transferred into the assay plate using Echo550. The plate is then placed back into the incubator for compound/composition treatment.

B16 melanocytes = conditions: expected result
Description: Plating media will include DMEM without L-glutamine, FBS, penicillin/streptomycin, and L-glutamine. Assay media will include DMEM without phenol red and L-glutamine, FBS, penicillin/streptomycin, L-glutamine, and aMSH. Other reagents will include Kojic Acid, DMSO, and MTT. Cells tested will be B16 cells (ATCC CRL-6475).
B16 Melanocytes are cultured until 70% confluent and harvested. Cells are seeded in 96-well plates at a density of 4000 cells/well and are allowed to attach overnight. The following day, test articles and controls are diluted in B16 Assay media. Overnight media is aspirated and 200 ul of test articles and controls are applied. Cells are incubated at 37° C. and 10% CO2 for 72 hours. Following 72-hour incubation, absorbance is read at 540 nm. Media is removed and replaced with 100 ul of plating media containing 1 mg/mL MTT and incubated for 2 hours at 37° C. and 10% CO2. MTT media is removed and replaced with 200 ul of 95% Ethanol/5% Isopropanol and allowed to shake for 15 minutes. MTT absorbance then is read at 570 nm.
B16 Melanocytes are cultured until 70% confluent and harvested. Cells are seeded in 96-well plates at a density of 4000 cells/well and are allowed to attach overnight. The following day, test articles, test compositions, and controls are diluted in B16 Assay media. […] Following 72-hour incubation, absorbance is read at 540 nm. […] MTT absorbance then is read at 570 nm.

[4] = tested on: MeWo, WM115 and B16F1 cell lines; conditions: expected result
Description: The cell lines MeWo (ATCC® HTB-65™), WM115 (ATCC® CRL-1675) and B16F1 (ATCC® CRL-6323) are maintained in the following culture media: culture medium for MeWo and B16F1: DMEM supplemented with 10% FBS; culture medium for WM115: RPMI 1640 supplemented with 10% FBS.
Cells are harvested and the cell number determined using a Countess Cell Counter. The cells are diluted with culture medium to the desired density. The final cell density may be, for example, 4,000 cells/well for 6 hr and 24 hr treatment, and 2,000 cells/well for 48 hr and 72 hr treatment. For the Annexin V assay, 384-well clear-bottom plates (Corning 3712) are employed, whereas 384-well solid white-bottom plates (Corning 3570) are used for the Caspase-Glo assays. All plates are covered with a lid and placed at 37° C. and 5% CO2 overnight for cell attachment.
Test compounds are dissolved in DMSO to 30 mM stock. 10-fold dilutions are performed to generate 3 mM and 0.3 mM concentrations. […]
For the Annexin V assay, plates are removed from the incubator and culture media is removed. […] Plates are read using ImageXpress Nano.
For the Caspase-Glo assay, plates are removed from the incubator and equilibrated at room temperature for 15 minutes. […] Plates are incubated at room temperature for 15 minutes and read using EnSpire™ plate reader. Fold induction is calculated according to the following formula: Fold induction=LumSample/LumNC.

Sequence of arylhydrocarbon receptor (AhR) (Homo sapiens, UniProt P35869) (P35869 11-848): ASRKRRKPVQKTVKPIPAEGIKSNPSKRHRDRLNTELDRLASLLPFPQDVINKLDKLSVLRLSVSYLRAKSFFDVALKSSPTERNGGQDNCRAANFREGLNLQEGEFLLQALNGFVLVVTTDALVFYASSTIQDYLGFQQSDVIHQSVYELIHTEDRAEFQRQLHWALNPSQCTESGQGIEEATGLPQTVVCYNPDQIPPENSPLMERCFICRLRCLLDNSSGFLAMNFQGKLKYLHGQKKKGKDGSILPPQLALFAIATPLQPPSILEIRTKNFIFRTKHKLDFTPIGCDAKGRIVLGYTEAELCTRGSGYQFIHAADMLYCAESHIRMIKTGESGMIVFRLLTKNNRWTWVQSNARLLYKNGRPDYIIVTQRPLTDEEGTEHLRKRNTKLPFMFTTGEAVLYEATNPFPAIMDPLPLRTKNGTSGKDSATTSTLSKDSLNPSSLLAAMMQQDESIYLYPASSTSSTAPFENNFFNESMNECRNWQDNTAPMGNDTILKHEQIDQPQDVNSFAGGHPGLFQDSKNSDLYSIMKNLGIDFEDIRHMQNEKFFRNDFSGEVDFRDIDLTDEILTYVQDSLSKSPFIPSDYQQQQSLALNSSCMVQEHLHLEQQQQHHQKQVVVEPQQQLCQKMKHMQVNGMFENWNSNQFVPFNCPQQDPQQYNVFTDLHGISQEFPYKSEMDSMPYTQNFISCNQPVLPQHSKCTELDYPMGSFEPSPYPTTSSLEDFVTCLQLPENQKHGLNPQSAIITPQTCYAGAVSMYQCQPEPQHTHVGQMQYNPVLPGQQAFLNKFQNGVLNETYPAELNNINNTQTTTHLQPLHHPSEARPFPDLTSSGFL

Row | Structure (SMILES) | AhR agonist activity [1] | cell death (cell viability) [2] | AhR activity modulation [3] | melanogenesis inhibition (B16 melanocytes) | cell death / apoptosis induction [4]
1 | O=Cc1c(Cc2c[nH]c3ccccc23)[nH]c2ccccc12 [Malassezin, 2-(1H-indol-3-ylmethyl)-1H-indole-3-carbaldehyde] | known agonist |  |  |  | 
2 | O=C1Nc2ccccc2/C1=C1/Nc2ccccc2C1=O [Indirubin] | known agonist | will induce cell death | will modulate AhR activity | will inhibit melanogenesis | will induce cell death
